In the supplement of paper PMC10307832:

Assays:
Experiment in all cases: relative viability (nuclei count vs DMSO), 5 days (fraction); higher = more cells survive
[1] = compound: CC1=CC=C(C=C1)C(=O)CN2C3=C(CCCC3)SC2=N [Pifithrin_alpha] + C[C@@H](Oc1cc(-c2cnn(C3CCNCC3)c2)cnc1N)c1c(Cl)ccc(F)c1Cl [Crizotinib] (partner 1 µM)
Procedure, shortened: (§1)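 Values are medians from duplicate plates. Each reflects relative viability, defined as the nuclei count of treated wells over that of vehicle wells. Lung cancer cell lines in 1536-well plates were pin-tool dosed one day after seeding with one drug alone or with a fixed anchor-drug dose plus five library-drug doses (not always all listed) in √10 steps, then fixed, stained and imaged at 4× after 5 days.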

Bemcentinib + Vorinostat = compound: Nc1nc(Nc2ccc3c(c2)CC[C@@H](N2CCCC2)CC3)nn1-c1cc2c(nn1)-c1ccccc1CCC2 [Bemcentinib] + O=C(CCCCCCC(=O)Nc1ccccc1)NO [Vorinostat] (partner 1 µM)
Procedure, shortened: as §1

Axitinib + Palbociclib = compound: CNC(=O)c1ccccc1Sc1ccc2c(/C=C/c3ccccn3)n[nH]c2c1 [Axitinib] + CC(=O)c1c(C)c2cnc(Nc3ccc(N4CCNCC4)cn3)nc2n(C2CCCC2)c1=O [Palbociclib] (partner 0.5 µM)
Procedure, shortened: as §1

Cell Line	relative viability ([1]; first compound 1 µM)	relative viability ([1]; first compound 3.162 µM)	relative viability ([1]; first compound 10 µM)	relative viability ([1]; first compound 100 µM)	relative viability (Bemcentinib + Vorinostat; first compound 0.04 µM)	relative viability (Bemcentinib + Vorinostat; first compound 0.1265 µM)	relative viability (Bemcentinib + Vorinostat; first compound 0.4 µM)	relative viability (Bemcentinib + Vorinostat; first compound 1.265 µM)	relative viability (Bemcentinib + Vorinostat; first compound 4 µM)	relative viability (Axitinib + Palbociclib; first compound 0.005 µM)	relative viability (Axitinib + Palbociclib; first compound 0.01581 µM)	relative viability (Axitinib + Palbociclib; first compound 0.05 µM)	relative viability (Axitinib + Palbociclib; first compound 0.1581 µM)	relative viability (Axitinib + Palbociclib; first compound 0.5 µM)	relative viability ([1]; first compound 31.62 µM)
NCI-H1944	1.13	1.18	0.866	0.958	0.521	0.611	0.608	0.527	0.561	0.365	0.342	0.328	0.318	0.307	–
SW 1573	0.789	0.753	0.857	0.656	0.662	0.785	0.873	0.879	0.765	0.36	0.448	0.395	0.384	0.473	0.664
NCI-H1975	0.881	0.8	0.659	0.611	0.709	0.805	0.776	0.808	0.777	0.694	0.586	0.507	0.541	0.672	0.537
NCI-H661	1.16	0.93	0.908	0.988	0.774	0.778	0.849	0.789	0.838	0.412	0.392	0.424	0.405	0.428	1.17
UMC-11	0.64	0.758	0.63	0.757	0.387	0.359	0.344	0.321	0.376	0.316	0.318	0.313	0.302	0.311	0.515
NCI-H520	1.19	0.805	0.731	0.833	0.678	0.902	0.83	0.626	0.761	0.242	0.19	0.205	0.194	0.187	0.509
COR-L23	0.583	0.723	0.683	0.644	0.468	0.47	0.522	0.477	0.521	0.322	0.297	0.323	0.303	0.331	–
NCI-H2023	0.505	0.501	0.381	0.37	0.77	0.783	0.619	0.748	0.66	0.393	0.447	0.363	0.34	0.412	0.3
NCI-H1650	0.979	0.912	0.936	0.792	0.515	0.713	0.753	0.576	0.553	0.423	0.322	0.412	0.313	0.486	0.648
RERF-LC-KJ	0.824	0.69	0.754	0.659	0.699	0.732	0.713	0.635	0.65	1.09	1.16	1.03	1.14	1.11	0.696
NCI-H1648	–	–	–	–	0.598	0.362	0.385	0.386	0.457	0.215	0.291	0.219	0.273	0.235	–
NCI-H1792	0.869	0.821	0.798	0.573	–	–	–	–	–	0.654	0.635	0.592	0.564	0.654	0.612
NCI-H1563	0.907	0.846	0.714	0.731	–	–	–	–	–	–	–	–	–	–	0.832
SW 900	–	–	–	–	0.461	0.924	0.602	0.303	0.501	0.629	–	0.587	0.502	0.6	–
A549	0.989	0.761	0.817	0.799	–	–	–	–	–	–	–	–	–	–	0.552
NCI-H2342	–	–	–	–	0.833	0.807	0.746	0.678	0.808	0.503	0.524	0.536	0.614	0.485	–
NCI-H1299	0.997	0.992	1.05	0.897	–	–	–	–	–	–	–	–	–	–	0.76
NCI-H1793	–	–	–	–	0.63	1.15	0.74	0.461	0.699	0.285	0.259	0.369	0.285	0.346	–
NCI-H1395	–	–	–	–	–	0.681	0.674	0.716	0.634	0.594	0.509	0.507	0.579	0.711	–
NCI-H522	–	–	–	–	0.87	0.959	0.859	0.799	0.907	0.892	0.966	1.01	1.05	0.915	–
EBC-1	0.187	0.21	0.168	0.152	–	–	–	–	–	–	–	–	–	–	0.16
Calu-6	0.944	0.742	0.813	0.85	–	–	–	–	–	–	–	–	–	–	0.605
NCI-H1703	0.577	0.531	0.803	1.05	–	–	–	–	–	–	–	–	–	–	0.455
NCI-H596	0.953	0.92	0.952	1.02	0.582	0.449	0.721	0.391	0.674	–	–	–	–	–	0.883
